Patent US20110152207A1, “USE OF VITAMIN D GLYCOSIDES AND SULFATES FOR TREATMENT OF DISEASE” (priority 2009, published 2011)
Marks after values point to notes of the source that are not given here.

What was measured:
[1] = system: β-glucuronidase activity, ileum lumen contents; assay: β-glucuronidase cleavage in ileum lumen contents, free 1,25-D3 by RIA; format: in vitro ADME, rats; details: 150 pg added
Experimental: (§3) The proximal 25 cm of duodenum/jejunum, the caudal 12 cm of ileum, and the cranial 12 cm of colon were removed. The contents from the lumen of each section were flushed with 3 ml water, collected, and pooled. Three-ml aliquots of intestinal contents were placed into tubes. To the tubes, either 2100 pg (3.53 pmoles) β-gluc-1,25-D3 was added and incubated at 37° C. for 0, 1, 3, or 6 hrs, or 150 pg (0.36 pmoles) of 1,25-D3 was added and incubated for 0 or 6 hrs. […] Acetonitrile (3 ml) was added to each tube after incubation to end all enzymatic activity, after which the 1,25-D3 was extracted. Tritiated 1,25-D3 was added to each tube to assess extraction efficiency. The preparations were cleaned by HPLC, and the samples were analyzed for 1,25-D3 content by RIA (Heartland Assays, Ames, Iowa) (Hollis et al., J. Steroid Biochem. Mol. Biol. 2007 103(3-5):473-6).

intestinal inflammation = details: Froicu et al., cited from earlier work
DU-145 cells = assay: DU-145 cell proliferation (CELLTITER BLUE); format: cell-based, human; details: 4 days, control = 100
Experimental: LNCaP cells (ATCC # CRL-1740) are malignant prostate cancer cells originally obtained from a lymph node of a person whose prostatic cancer had metastasized to the lymph node. LNCaP cells were grown in tissue culture using RPMI-1640 media with 10% fetal bovine serum. Wells of two 48-well tissue culture plates were seeded with 5000 LNCaP cells/well. […] Half the media was replaced with fresh media with treatments on the third day of the treatment period. By day 6 of treatment, wells of control untreated cells were approximately 60% confluent. The live cell numbers in each well at the end of treatment were assessed using the “CELLTITER BLUE”-brand assay kit (Promega Corp., Madison, Wis.). The assay is based on the ability of living cells to convert a redox dye (resazurin) into a fluorescent end product (resorufin). […] A similar study was performed using a second human-derived prostatic cancer cell line known as DU-145 (ATCC# HTB-81). […] Exp. Med. Biol. 1995 375:53-63). The DU-145 cells were propagated in Eagle's Minimum Essential Medium with 10% fetal bovine serum. The cells were treated in culture for just 4 days, with half the media replaced with fresh media on day 3 of treatment. Cells were 40% confluent at the end of treatment.

[2] = system: DSS-induced inflammation of the lower colon; assay: Dextran sodium sulfate (DSS) mouse model of IBD; format: in vivo; details: DSS mice
Source text: (§1) In this example, β-gluc-1,25-D3 compounds, alone or in combination with 25-β-glucuronide-25-hydroxyvitamin D3 compounds (hereinafter β-gluc-25-D3) were incorporated into the diet of mice and compared to equimolar 1,25-D3 with respect to therapeutic effects on IBD and induction of calcemia. A standard mouse model of IBD comprising administering dextran sodium sulfate (DSS) to induce inflammation of the lower colon was used to study these effects. Vitamin D treatments were first initiated for 4 days. After 4 days, mice were fed DSS-water for 7 days, allowed one day to recover, and sacrificed. Colon length, plasma calcium, fecal blood score, and body weight were assayed. Colon length is a standard marker of intestinal inflammation in the literature, with shortened colon length being an indicator of inflammation. A 1-cm section of the mid-colon was removed, fixed in formalin, and stained with hematoxylin & eosin for microscopic histopathologic evaluation by a veterinary pathologist blinded to the treatments. Each tissue section received a score from 0 to 4 reflecting absence of lesion to severe, extensive lesion for each of three criteria: (1) the degree of erosion/ulceration of colon mucosa; (2) the degree of infiltration of the tissues by inflammatory cells; and (3) the degree of submucosal edema. The sum of the score of each of these criteria constitutes the histopathological score for the tissue with a zero score representing normal tissue based on all criteria, and the worst possible outcome being a score of 12.

[3] = Plasma 1,25-D3 concentration in mice after a single oral dose (RIA)
LNCaP cells = assay: LNCaP cell proliferation (CELLTITER BLUE); format: cell-based, human; details: six days, control = 100
Experimental: LNCaP cells (ATCC # CRL-1740) are malignant prostate cancer cells originally obtained from a lymph node of a person whose prostatic cancer had metastasized to the lymph node. LNCaP cells were grown in tissue culture using RPMI-1640 media with 10% fetal bovine serum. Wells of two 48-well tissue culture plates were seeded with 5000 LNCaP cells/well. […] Half the media was replaced with fresh media with treatments on the third day of the treatment period. By day 6 of treatment, wells of control untreated cells were approximately 60% confluent. The live cell numbers in each well at the end of treatment were assessed using the “CELLTITER BLUE”-brand assay kit (Promega Corp., Madison, Wis.). The assay is based on the ability of living cells to convert a redox dye (resazurin) into a fluorescent end product (resorufin).

Cyp24 [4] = assay: Cyp24 mRNA expression in duodenum of mice after a single oral dose; format: in vivo; details: for Cyp24 expression in the duodenum, induction over control mice: 24 pmol per os
Experimental: (§2) Mice were decapitated 6 hrs later following light anesthesia under inhaled halothane. […] Tissue samples were flushed with ice-cold phosphate-buffered saline and immediately homogenized in 1 ml of TRIzol® reagent (Invitrogen Corp., Carlsbad, Calif.). Samples were then kept frozen at −86° C. prior to processing for RNA. For processing RNA, each TRIzol® homogenate was thawed at room temperature and 500 μl placed in a clean microfuge tube, mixed thoroughly with 100 μl chloroform for 15 sec and then centrifuged at 12,000×g for 15 min at 4° C. The upper aqueous phase was removed and mixed with 0.93 volumes of 75% EtOH. The mixture was then applied to an RNeasy spin column (Qiagen Inc., Germantown, Md.) and processed as described by the manufacturer with the exception that an additional wash with 2M NaCl/2 mM EDTA (pH 4.0) was included (Das et al. J Vet Diagn Invest. 2009; 21:771-778). RNA was eluted in 50 μl of water and the concentration obtained by UV spectrometry. One microgram of RNA was then used as a template for production of cDNA in a 20-μl reaction volume using random hexamers and Superscript III as described by the manufacturer (Invitrogen, Carlsbad, Calif.). Afterwards, samples were diluted to 100 μl final volume with TE buffer and stored at −20° C. prior to PCR analysis. Quantitative real-time RT-PCR was performed using a Stratagene Mx3005p cycler (Stratagene, La Jolla, Calif.) and PerfeCTa® SYBR® Green FastMix®, ROX reagent (Quanta Biosciences, Gaithersburg, Md.). Amplification of target cDNAs was accomplished with the following primers: Aliquots (8.3 ng) of cDNA were amplified under the following conditions: 95° C. for 30 sec, followed by 45 cycles of 95° C. for 1 sec and 57° C. for 30 sec. […] Oligonucleotides were obtained from Integrated DNA Technologies (Coralville, Iowa).

Cyp24 [5] = assay: Cyp24 mRNA expression in colon of mice after a single oral dose; format: in vivo; details: 6 hrs
Experimental: as §2

[6] = Hypercalcemic effect: plasma calcium in rats under continuous subcutaneous infusion; format: in vivo; details: for Plasma Calcium Mean ± SD: 12th day, in mg/dL (unit assumed)
Experimental: The pumps were filled aseptically with the appropriate dose of drug dissolved in propylene glycol. The pumps were surgically implanted under the skin on the dorsal neck and shoulder area aseptically. On the 12th day of infusion, rats were deeply anesthetized (isofluorane inhalation) and blood was collected by cardiac puncture for plasma calcium determination. The plasma calcium levels were determined by standard methods.

[7] = system: β-glucuronidase activity, duodenum lumen contents; assay: β-glucuronidase cleavage in duodenum lumen contents, free 1,25-D3 by RIA; format: in vitro ADME, rats; details: 150 pg added
Experimental: as §3

[8] = Plasma calcium in the DSS mouse model of IBD; format: in vivo; details: DSS mice, 5000 ng/day in diet
Source text: as §1

[9] = calcitriol = 1; cited from earlier work

Compound: C=C1/C(=C\C=C2/CCC[C@]3(C)[C@@H]([C@H](C)CCCC(C)(C)O)CC[C@@H]23)C[C@@H](O)C[C@@H]1O [1,25-D3, 1,25-dihydroxyvitamin D3, reference compound]
- Measured Free 1,25-dihydroxy vitamin D ([1]; 0 hrs incubation): 129 pg
- Measured Free 1,25-dihydroxy vitamin D ([1]; 6 hrs incubation): 128 pg
- hypercalcemia at the effective dose (intestinal inflammation; 50 ng): results in hypercalcemia
- dose required to improve intestinal inflammation (intestinal inflammation; mouse model of inflammatory disease): 50 ng
- Proliferation index (Mean ± SEM) (DU-145 cells; DU-145, 20 nM): 94.7 ± 1.7
- Proliferation index (Mean ± SEM) (DU-145 cells; DU-145, 100 nM): 89.3 ± 2.4
- Colon Length ([2]; 10 ng/day in diet): 5.52 ± 0.20 cm
- Final Body Weight ([2]; 10 ng/day in diet): 21.39 ± 0.82 g
- Fecal Blood Score ([2]; 10 ng/day, 0 = no blood to 3 = multiple blood spots): 0.33 ± 0.12^c
- Histopathology score (0-12) ([2]; 10 ng/day, 0 = no lesions, 12 = severe): 7.44 ± 0.50
- Histopathology score (0-12) ([2]; 50 ng/day): 5.89 ± 0.54^c
- histopathological scores among the effective treatments ([2]; 50 ng/day): numerically the best
- improving inflammation ([2]; 50 ng/day): less effective than the 70-ng/day β-gluc-1,25-D3 plus 5000 ng/day β-gluc-25-D3 combination treatment
- Colon Length ([2]; 50 ng/day in diet): 5.74 ± 0.17 cm
- Final Body Weight ([2]; 50 ng/day in diet): 20.82 ± 0.43 g
- Fecal Blood Score ([2]; 50 ng/day, scale 0-3): 0.22 ± 0.12^c
- plasma 1,25-D3 concentration ([3]; 6 pmol per os, 6 hr time point): not significantly increased
- peak plasma 1,25-D3, fold over control mouse plasma 1,25-D3 ([3]; 24 pmol per os): ~14 fold
- peak plasma concentration of 1,25-D3 ([3]; 24 pmol per os): 1280 pg/mL
- time of peak plasma 1,25-D3 concentration ([3]; 24 pmol per os): 1 h
- plasma 1,25-D3 concentration ([3]; 24 pmol per os, 24 hrs after treatment): slightly below the concentration observed in control animals
- Proliferation index (Mean ± SEM) (LNCaP cells; 20 nM): 69.7 ± 8.4
- Proliferation index (Mean ± SEM) (LNCaP cells; 100 nM): 63.8 ± 7.3
- Cyp24 expression in the duodenum, induction over control mice (Cyp24 [4]; 1 hour): 350 fold
- Cyp24 expression in the duodenum, induction over control mice (Cyp24 [4]; 3 hours): 1600 fold
- Cyp24 expression in the duodenum, induction over control mice (Cyp24 [4]; 6 hours): more than 2500 fold
- induction of Cyp24 gene expression in the duodenum (Cyp24 [4]; 48 pmol per os, 6 hrs): > 1000 fold
- increase in Cyp24 in the colon over control mice (Cyp24 [5]; 24 pmol per os): about 5 fold
- increase in Cyp24 expression in the colon (Cyp24 [5]; 48 pmol per os, relative to untreated mice): ~4.8±4 fold
- Plasma Calcium Mean ± SD ([6]; 10 ng/day continuous s.c. infusion): 10.41 ± 0.27
- Plasma Calcium Mean ± SD ([6]; 15 ng/day continuous s.c. infusion): 10.78 ± 0.26
- lowest dose inducing a statistically significant increase in plasma calcium levels ([6]; continuous s.c. infusion): 15 ng/day
- Significantly greater than control? Duncan's Multiple Range Test ([6]; plasma calcium, 15 ng/day): Yes
- Measured Free 1,25-dihydroxy vitamin D ([7]; 0 hrs incubation, 37° C.): 96 pg
- Measured Free 1,25-dihydroxy vitamin D ([7]; 6 hrs incubation): 117 pg

Compound: 25-β-glucuronide-25-hydroxyvitamin D3 [β-gluc-25-D3]
- Histopathology score (0-12) ([2]; 5000 ng/day): 8.22 ± 0.72
- effect on IBD by itself ([2]; 5000 ng/day): essentially ineffective by itself
- Colon Length ([2]; 5000 ng/day in diet): 5.50 ± 0.20 cm
- Final Body Weight ([2]; 5000 ng/day in diet): 21.16 ± 0.53 g
- Fecal Blood Score ([2]; 5000 ng/day, scale 0-3): 1.05 ± 0.34
- Plasma Calcium [8]: 8.68 ± 0.27^d mg/dl

Compound: C=C1/C(=C\C=C2/CCC[C@]3(C)[C@@H]([C@H](C)/C=C/[C@@H](O)C4CC4)CC[C@@H]23)C[C@@H](O)CC1O (stereo partly drawn) [calcipotriol]
- calcemic index [9]: about 0.01
